From patent US10406207B2, “Peptide conjugates of GLP-1 receptor agonists and gastrin and their use” (priority 2010, dated 2019) come the findings set out here.

Bridge positions count the residues as written; N and C are the ends. Square brackets hold non-standard residues; d marks the D form. Peptide text beside a SMILES is read from it. AEEA = NCCOCCOCC(=O)O

Usually half-life stands for the time needed for the level to fall by half in the phase considered. High values mean slow decline, low ones rapid decline. The EC50 is the midpoint of the concentration-response curve.

One series in a line: in vivo. Details: species or system C57Bl mice. Conditions: mouse, sc, 100 nmol/kg; for half-life: C57Bl. Here is the method: Two C57Bl mice were given a single subcutaneous dose of 100 nmol/kg of each peptide. […] At each time point, samples from two mice were taken. Plasma samples were analyzed after solid phase extraction (SPE) by liquid chromatography mass spectrometry (LC-MS/MS).

The next series deals with T1, human GLP-1 R (Homo sapiens, UniProt P43220).
T1 construct: expressed in transfected cells
The experiment in a line: Human GLP-1 receptor efficacy assay (cAMP induction, FlashPlate). Conditions: Table 2; read-out: hGLP-1 R EC50. The class given is cell-based. The procedure:
On the day of analysis, growth medium was removed and the cells were washed once with 200 μl Tyrode buffer [Tyrode's Salts (9.6 g/l), 10 mM HEPES, pH 7.4]. […] The reaction was stopped by addition of 25 μl 0.5 M HCl and incubated on ice for 60 min.

In a further series the target is T2, human CCK-B R (Homo sapiens, UniProt P32239).
T2 construct: expressed in transfected cells
T2 sequence (P32239 1-447): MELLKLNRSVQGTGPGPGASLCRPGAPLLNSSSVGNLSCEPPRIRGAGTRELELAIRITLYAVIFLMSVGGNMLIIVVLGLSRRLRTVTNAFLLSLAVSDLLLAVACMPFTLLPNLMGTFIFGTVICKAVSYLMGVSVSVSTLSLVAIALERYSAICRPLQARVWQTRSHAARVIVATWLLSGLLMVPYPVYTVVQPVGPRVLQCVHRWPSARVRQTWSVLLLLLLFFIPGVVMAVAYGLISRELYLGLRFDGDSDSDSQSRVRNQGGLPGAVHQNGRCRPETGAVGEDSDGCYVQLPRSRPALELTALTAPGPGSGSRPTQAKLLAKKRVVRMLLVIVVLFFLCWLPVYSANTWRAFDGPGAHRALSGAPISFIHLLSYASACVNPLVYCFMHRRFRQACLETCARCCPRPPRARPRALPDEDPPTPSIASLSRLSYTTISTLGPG
In words: Human CCK-B receptor efficacy assay (AlphaScreen SureFire p-ERK). Conditions: Table 2; read-out: hCCK-B R EC50. The class given is cell-based.

T1 sequence (P43220 24-463): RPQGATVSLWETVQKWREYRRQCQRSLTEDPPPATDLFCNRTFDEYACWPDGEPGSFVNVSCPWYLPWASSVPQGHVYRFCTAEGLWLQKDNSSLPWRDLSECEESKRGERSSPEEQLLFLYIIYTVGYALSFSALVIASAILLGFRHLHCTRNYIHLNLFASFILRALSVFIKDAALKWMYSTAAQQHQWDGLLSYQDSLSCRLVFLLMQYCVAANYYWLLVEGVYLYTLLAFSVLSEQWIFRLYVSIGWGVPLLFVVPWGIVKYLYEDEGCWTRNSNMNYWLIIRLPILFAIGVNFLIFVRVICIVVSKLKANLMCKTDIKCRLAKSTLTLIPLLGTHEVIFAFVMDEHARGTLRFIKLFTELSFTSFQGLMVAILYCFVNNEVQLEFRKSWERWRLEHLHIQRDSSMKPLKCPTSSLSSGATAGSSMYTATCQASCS
Description for human CCK-B R: CCK-B Receptor (CCK-B R) Efficacy Assay:
In vitro effects of peptide conjugates of the invention were estimated by measuring p-ERK (using the AlphaScreen™ SureFire p-ERK assay) in HEK293 cells stably expressing the human and mouse CCK-B R (high-affinity Gastrin receptor), respectively. The Gastrin receptor efficacy assays (AlphaScreen™ SureFire p-ERK assay) were performed as follows:
The CCK-B R expressing cells in question were seeded at 20,000 cells/well in 100 μl growth medium [DMEM, 10% FCS, Penicillin (100 IU/ml), Streptomycin (100 μg/ml)] in a 96-well plate coated with poly-D-lysine. The cells were incubated in an incubator (37° C., 5% 002) for two days.
The growth medium was changed to 80 μl of serum-free medium [DMEM, Penicillin (100 IU/ml), Streptomycin (100 μg/ml)] per well, and incubation of the cells was continued for 19 hours in the incubator (37° C., 5% CO2).
After 19 hours, 20 μl of serum-free medium containing one of 5 different concentrations of peptide conjugate was added (performed in triplicate for each concentration), and the cells were incubated for 5 min. at room temperature. • 2. The stimulation medium was discarded by quickly turning the plate upside down, and 60 μl 1× lysis buffer (from the SureFire assay kit) was added per well. • 3. The plate was shaken on a plate-shaker for 5 min and then placed on ice. • 4. SureFire P-ERK assay: 4 μl of each supernatant was transferred to a 384 well proxiplate (Perkin Elmer). • 5. 4 μl of each of the two control lysates (unstimulated and stimulated) were added to the proxiplate in duplicate. • 6. […] 7 μl of the latter reaction buffer+activation buffer+beads per well were added in the proxiplate, the mix being resuspended carefully before addition to the wells. • 7. The plate was incubated for 2 hours in a dark box in a 22° C. incubator. • 8. The plate was analyzed on an Envision™ light-emission plate reader (Perkin-Elmer) using the appropriate reading program (Perkin-Elmer).

Take `CC[C@H](C)[C@H](NC(=O)[C@H](Cc1ccccc1)NC(=O)[C@H](CC(C)C)NC(=O)[C@H](CCCNC(=N)N)NC(=O)[C@@H](NC(=O)[C@H](C)NC(=O)[C@H](CCC(=O)O)NC(=O)[C@H](CCC(=O)O)NC(=O)[C@H](CCC(=O)O)NC(=O)[C@H](CC(C)C)NC(=O)[C@H](Cc1ccc(O)cc1)NC(=O)[C@H](CCCCN)NC(=O)[C@H](CO)NC(=O)[C@H](CC(C)C)NC(=O)[C@H](CC(=O)O)NC(=O)[C@H](CO)NC(=O)[C@@H](NC(=O)[C@H](Cc1ccccc1)NC(=O)[C@@H](NC(=O)CNC(=O)[C@H](CCC(=O)O)NC(=O)CNC(=O)[C@@H](N)Cc1c[nH]cn1)[C@@H](C)O)[C@@H](C)O)C(C)C)C(=O)N[C@@H](CCC(=O)O)C(=O)N[C@@H](Cc1c[nH]c2ccccc12)C(=O)N[C@@H](CC(C)C)C(=O)N[C@@H](CCCCN)C(=O)NCCOCCOCC(=O)NCCOCCOCC(=O)N[C@@H](Cc1ccc(O)cc1)C(=O)NCC(=O)N[C@@H](Cc1c[nH]c2ccccc12)C(=O)N[C@@H](CC(C)C)C(=O)N[C@@H](CC(=O)O)C(=O)N[C@@H](Cc1ccccc1)C(N)=O` [Compound 74, [Tyr13,Leu14]Exendin-4(1-27)-Peg3-Peg3-[Leu4]Gastrin6] (H-HGEGTFTSDLSKYLEEEAVRLFIEWLK[AEEA][AEEA]YGWLDF-NH2): in “in vivo”, the half-life was 3.6 h; the “Half-life and exposure (in words)” value is given as “superior to the rest”. Also, the EC50 at human GLP-1 R was 0.05 nM. Moreover, the half-maximal effective concentration (EC50) on human CCK-B R stood at 8.4 nM.
The compound `CC[C@H](C)[C@H](NC(=O)[C@H](Cc1ccccc1)NC(=O)[C@H](CC(C)C)NC(=O)[C@H](CCCNC(=N)N)NC(=O)[C@@H](NC(=O)[C@H](C)NC(=O)[C@H](CCC(=O)O)NC(=O)[C@H](CCC(=O)O)NC(=O)[C@H](CCC(=O)O)NC(=O)[C@H](CCSC)NC(=O)[C@H](Cc1ccc(O)cc1)NC(=O)[C@H](CCCCN)NC(=O)[C@H](CO)NC(=O)[C@H](CC(C)C)NC(=O)[C@H](CC(=O)O)NC(=O)[C@H](CO)NC(=O)[C@@H](NC(=O)[C@H](Cc1ccccc1)NC(=O)[C@@H](NC(=O)CNC(=O)[C@H](CCC(=O)O)NC(=O)CNC(=O)[C@@H](N)Cc1c[nH]cn1)[C@@H](C)O)[C@@H](C)O)C(C)C)C(=O)N[C@@H](CCC(=O)O)C(=O)N[C@@H](Cc1ccccc1)C(=O)N[C@@H](CC(C)C)C(=O)N[C@@H](CCCCN)C(=O)NCCOCCOCC(=O)NCCOCCOCC(=O)N[C@@H](Cc1ccc(O)cc1)C(=O)NCC(=O)N[C@@H](Cc1c[nH]c2ccccc12)C(=O)N[C@@H](CC(C)C)C(=O)N[C@@H](CC(=O)O)C(=O)N[C@@H](Cc1ccccc1)C(N)=O` [Compound 75, [Tyr13,Phe25]Exendin-4(1-27)-Peg3-Peg3-[Leu4]Gastrin6] (H-HGEGTFTSDLSKYMEEEAVRLFIEFLK[AEEA][AEEA]YGWLDF-NH2) showed a half-life in “in vivo” of 2.5 h. For the same compound, the results for the EC50 on human GLP-1 R and at human CCK-B R were 0.035 nM and 8.4 nM, respectively.
As for `CC[C@H](C)[C@@H]1NC(=O)[C@H](Cc2ccccc2)NC(=O)[C@H](CC(C)C)NC(=O)[C@@H](NC(=O)[C@@H](NC(=O)[C@H](C)NC(=O)[C@H](CCC(=O)O)NC(=O)[C@H](CCC(=O)O)NC(=O)[C@H](CCC(=O)O)NC(=O)[C@H](CCSC)NC(=O)[C@H](CCC(N)=O)NC(=O)[C@H](CCCCN)NC(=O)[C@H](CO)NC(=O)[C@H](CC(C)C)NC(=O)[C@H](CC(=O)O)NC(=O)[C@H](CO)NC(=O)[C@@H](NC(=O)[C@H](Cc2ccccc2)NC(=O)[C@@H](NC(=O)CNC(=O)[C@H](CCC(=O)O)NC(=O)CNC(=O)[C@@H](N)Cc2c[nH]cn2)[C@@H](C)O)[C@@H](C)O)C(C)C)CCCCNC(=O)CC[C@@H](C(=O)N[C@@H](Cc2c[nH]c3ccccc23)C(=O)N[C@@H](CC(C)C)C(=O)N[C@@H](CCCCN)C(=O)N[C@@H](CC(N)=O)C(=O)NCCOCCOCC(=O)NCCOCCOCC(=O)N[C@@H](Cc2ccc(O)cc2)C(=O)NCC(=O)N[C@@H](Cc2c[nH]c3ccccc23)C(=O)N[C@@H](CC(C)C)C(=O)N[C@@H](CC(=O)O)C(=O)N[C@@H](Cc2ccccc2)C(N)=O)NC1=O` [Compound 80, Side chain-cyclo([Lys20,Glu24]Exendin-4(1-28)-Peg3-Peg3-[Leu4]Gastrin6] (H-HGEGTFTSDLSKQMEEEAVKLFIEWLKN[AEEA][AEEA]YGWLDF-NH2; lactam 20-24), in “in vivo”, the half-life is 1.9 h. The EC50 at human GLP-1 R was determined as 0.032 nM; on human CCK-B R, 4 nM.
